Results taken from the NIST ThermoML archive (doi:10.1016/j.jct.2016.07.029).

Experiment: excess molar enthalpy (molar enthalpy of mixing); xn = mol fraction of the nth substance listed
Settings: 100 kPa, Liquid, Calvet calorimetry

[Zn] [zinc] + [Ga]
Settings | excess molar enthalpy [kcal/mol]
722 K, x1 = 0.0966 | 0.125
722 K, x1 = 0.132 | 0.161
722 K, x1 = 0.1679 | 0.205
722 K, x1 = 0.237 | 0.272
722 K, x1 = 0.2478 | 0.255
722 K, x1 = 0.2796 | 0.304
722 K, x1 = 0.3239 | 0.337
722 K, x1 = 0.3424 | 0.323
722 K, x1 = 0.3664 | 0.357
722 K, x1 = 0.4104 | 0.377
722 K, x1 = 0.4155 | 0.361
722 K, x1 = 0.4432 | 0.385
722 K, x1 = 0.4746 | 0.378
722 K, x1 = 0.4747 | 0.393
722 K, x1 = 0.5057 | 0.402
722 K, x1 = 0.5202 | 0.377
722 K, x1 = 0.5368 | 0.404
722 K, x1 = 0.5565 | 0.378
722 K, x1 = 0.562 | 0.406
722 K, x1 = 0.5901 | 0.379
722 K, x1 = 0.6188 | 0.375
722 K, x1 = 0.6444 | 0.37
722 K, x1 = 0.6659 | 0.363
722 K, x1 = 0.6846 | 0.357
722 K, x1 = 0.761 | 0.326
722 K, x1 = 0.8068 | 0.305
722 K, x1 = 0.8495 | 0.256
722 K, x1 = 0.9004 | 0.182
722 K, x1 = 0.948 | 0.102
923 K, x1 = 0.07739 | 0.092
923 K, x1 = 0.1307 | 0.149
923 K, x1 = 0.1593 | 0.182
923 K, x1 = 0.2353 | 0.252
923 K, x1 = 0.2736 | 0.284
923 K, x1 = 0.3154 | 0.313
923 K, x1 = 0.3262 | 0.315
923 K, x1 = 0.3711 | 0.346
923 K, x1 = 0.3774 | 0.352
923 K, x1 = 0.4101 | 0.361
923 K, x1 = 0.4408 | 0.38
923 K, x1 = 0.4434 | 0.384
923 K, x1 = 0.4743 | 0.395
923 K, x1 = 0.4896 | 0.398
923 K, x1 = 0.4981 | 0.403
